Assay results from patent US20070232563A1, “Method for Enhancing Biological Activity and/or Expanding Suitable Region for Biological Activity of Living Body Contacting with Aqueous Environment” (Kabushiki Kaisha Hayashibara Seibutsu Kagaku Kenky, priority 2004, published 2007).

Key:
Assay type in all cases: in vivo
[1] = system: colbicula (Corbicula leana); test: Biological activity of corbicula (aqueduct extension score) in aqueous mineral solutions
Text: Influence of various saccharides was judged by observing the degree of extending aqueduct of the shellfish; 3 points: its aqueduct is well extended; 2 points: its aqueduct is slightly extended; 1 point: its aqueduct is not extended but its shells are opened; 0 point: its shells are closed. The effect on biological activity was judged by the total point of 18 shellfishes.
Suitable region for biological activity was examined by using colbicula (Corbicula leana) as fishes and shellfishes living in fresh water in the case of enhancing their biological activity by using aqueous mineral solutions containing various saccharides. In detail, solar salt (85% by weight of sodium chloride and 15% by weight of magnesium) as minerals was dissolved in tap water kept in a container for two days to give final concentrations described in the following Table 4. Saccharide (any one of D-glucose, maltose, sucrose, maltitol, α,α-trehalose, α-maltosyl α,α-trehalose, maltotetraose and cyclic tetrasaccharide) was dissolved in the resulting salt solutions to give a final concentration of 1 w/v %, on a dry solid basis. The resulting each solution was placed in a plastic bat. Eighteen pre-selected active shellfishes in one group were placed in the bat. The bat was shaded with a black cloth and left at ambient temperature (18° C.) for 16 hours. As a control, an aqueous solar salt solution without saccharides was prepared. Biological activity of the shellfish was judged by measuring extend their aqueducts macroscopically in the same manner as in Experiment 1.
Effective concentration range of α,α-trehalose or α-maltosyl α,α-trehalose on enhancing biological activity and/or influencing on suitable region for biological activity of colbicula (Corbicula leana) was determined according to the method of Experiment 4 by examining biological activity of the shellfish in the aqueous mineral solution with a mineral concentration of 1.5 w/v %, where α,α-trehalose or α-maltosyl α,α-trehalose was effective in Experiment 4, containing α,α-trehalose or α-maltosyl α,α-trehalose at a concentration of 0.01, 0.1, 1, 2, 3 or 4 w/v %, on a dry solid basis. As a control, a solution containing 1.5 w/v % of mineral without such saccharides was prepared and treated in the same manner.

[2] = system: alfalfa; test: Cultivation of sprout food (alfalfa) in aqueous mineral solution: stem extension, flavor and taste panel; conditions: aerial part (stem) height vs water control; each ingredient 1 (w/v)%; three days, 18° C.
Text: Absorbent cotton was allowed to absorb aqueous solution containing on a dry solid basis 1 w/v % of mineral (sodium chloride) and 1 w/v % of α,α-trehalose or α-maltosyl α,α-trehalose and placed in a transparent container. One hundred per group commercialized alfalfa seeds were placed in the container. As references, waters containing either of mineral, α,α-trehalose or α-maltosyl α,α-trehalose were used. As a control, water was used. After covered with a transparent lid, the container was placed in a room under a borrowed light at 18° C. for three days to cultivate alfalfa. The grown alfalfa plants were measured to calculate average value of aerial part (stem) height. Relative extension rate was calculated in such a manner of comparing the average value of each sample with that of control. In addition, 20 panels were judged in view of flavor and taste in such a manner of comparing each sample with control cultivated in water.

[3] = system: gold fish (Japanese gold fish, Carassius auratus) with columnaris disease; test: Treatment for a disease of gold fish (columnaris disease); conditions: bred one week, each ingredient 1 (w/v)%; for Treatment effect: columnaris disease; for Activity of gold fish: macroscopic observation
Description: One per group of gold fish (Japanese gold fish, Carassius auratus) with columnaris disease was bred in an aquarium filled with 2 L of aqueous solution containing 1 w/v % mineral and 1 w/v % α,α-trehalose or α-maltosyl α,α-trehalose at ambient temperature with normal feed for one week. Waters containing either of mineral, α,α-trehalose or α-maltosyl α,α-trehalose as references and water as a control were prepared to breed similarly as above. The fishes were macroscopically observed their activity and treatment effect.

[4] = Experiment 5, mineral 1.5 w/v %, saccharide 0.01 w/v %
[5] = Experiment 5, mineral 1.5 w/v %, saccharide 0.1 w/v %
[6] = Experiment 5, mineral 1.5 w/v %, saccharide 1 w/v %
[7] = Experiment 5, mineral 1.5 w/v %, saccharide 2 w/v %
[8] = Experiment 5, mineral 1.5 w/v %, saccharide 3 w/v %
[9] = Experiment 5, mineral 1.5 w/v %, saccharide 4 w/v %
[10] = mineral concentration 0, saccharide 1 w/v %, total of 18 shellfishes, 16 h
[11] = mineral concentration 0.5, saccharide 1 w/v %, total of 18 shellfishes, 16 h
[12] = mineral concentration 1.0, saccharide 1 w/v %, total of 18 shellfishes, 16 h
[13] = mineral concentration 1.5, saccharide 1 w/v %, total of 18 shellfishes, 16 h
[14] = mineral concentration 2.0, saccharide 1 w/v %, total of 18 shellfishes, 16 h
[15] = mineral concentration 2.5, saccharide 1 w/v %, total of 18 shellfishes, 16 h
[16] = mineral concentration 3.0, saccharide 1 w/v %, total of 18 shellfishes, 16 h

SMILES	Judgment score of biological activity [1, 4]	Judgment score of biological activity [1, 5]	Judgment score of biological activity [1, 6]	Judgment score of biological activity [1, 7]	Judgment score of biological activity [1, 8]	Judgment score of biological activity [1, 9]	Judgment score of biological activity [1, 10]	Judgment score of biological activity [1, 11]	Judgment score of biological activity [1, 12]	Judgment score of biological activity [1, 13]	Judgment score of biological activity [1, 14]	Judgment score of biological activity [1, 15]	Judgment score of biological activity [1, 16]	Relative extension (%) [2]	Treatment effect [3]	Activity of gold fish [3]
OC[C@H]1O[C@H](O[C@H]2O[C@H](CO)[C@@H](O)[C@H](O)[C@H]2O)[C@H](O)[C@@H](O)[C@@H]1O [α,α-Trehalose, α,α-trehalose]	21	39	52	48	39	25	54	53	52	49	42	20	6	101%	Bad	Good
OC[C@H]1O[C@H](O[C@H]2O[C@H](CO)[C@@H](O[C@H]3O[C@H](CO)[C@@H](O[C@H]4O[C@H](CO)[C@@H](O)[C@H](O)[C@H]4O)[C@H](O)[C@H]3O)[C@H](O)[C@H]2O)[C@H](O)[C@@H](O)[C@@H]1O [α-Maltosyl α,α-trehalose, α-maltosyl α,α-trehalose]	19	35	45	41	34	21	54	53	45	44	37	24	4	105%	Bad	Good
